Measured values published in patent US20250304583A1, “INHIBITING G CYCLIC AMP-RESPONSIVE ELEMENT-BINDING PROTEIN (CREB) BINDING PROTEIN (CBP)” (FORMA Therapeutics, Inc., priority 2020, published 2025).
Where a name gives a salt, the structure may show the parent alone.

Experiments:
[1] = test system: panel of 10 BRD representing the various branches of the bromodomain tree; experiment: AlphaScreen panel of 10 bromodomains; type: binding; settings: number of bromodomains out of 10
[2] = Solid form stability at temperature and relative humidity; type: physicochemical; settings: temperatures up to 40° C. and relative humidity of up to 75%
[3] = Dynamic vapor sorption (hygroscopicity); type: physicochemical; settings: relative humidity of up to 80%, dynamic vapor sorption isotherm
Source text: Dynamic Vapor Sorption (DVS) data were collected with a SMS DVS Intrinsic from Surface Measurement Systems.

| SMILES | activity against 10 bromodomains surveyed [1] | stability of solid form [2] | water uptake [3] [%] |
| --- | --- | --- | --- |
| COC(=O)N1c2ccc3c(nc([C@H](O)c4cc(F)ccc4OC)n3[C@@H]3CCC[C@@H](C(=O)O)C3)c2CC[C@@H]1C [Compound 1, (1R,3R)-3-[(7S)-2-[(R)-(5-fluoro-2-methoxyphenyl)(hydroxy)methyl]-6-(methoxycarbonyl)-7-methyl-3H,6H,7H,8H,9H-imidazo[4,5-f]quinolin-3-yl]cyclohexane-1-carboxylic acid] | inactive against 8 | – | – |
| COC(=O)N1c2ccc3c(nc([C@H](O)c4cc(F)ccc4OC)n3[C@@H]3CCC[C@@H](C(=O)O)C3)c2CC[C@@H]1C [HCl type A salt, (1R,3R)-3-((S)-2-((R)-(5-fluoro-2-methoxyphenyl)(hydroxy)methyl)-6-(methoxycarbonyl)-7-methyl-6,7,8,9-tetrahydro-3H-imidazo[4,5-f]quinolin-3-yl) cyclohexane-1-carboxylic acid] | – | stable for at least two weeks | 6.3 |
| COC(=O)N1c2ccc3c(nc([C@H](O)c4cc(F)ccc4OC)n3[C@@H]3CCC[C@@H](C(=O)O)C3)c2CC[C@@H]1C [type B p-toluenesulfonic acid addition salt] [(1R,3R)-3-((S)-2-((R)-(5-fluoro-2-methoxyphenyl)(hydroxy)methyl)-6-(methoxycarbonyl)-7-methyl-6,7,8,9-tetrahydro-3H-imidazo[4,5-f]quinolin-3-yl) cyclohexane-1-carboxylic acid] | – | stable for at least two weeks | 2.1 |
